Laboratory results: ChEMBL document CHEMBL1145652, “Plant anticancer agents. XXVI. Constituents of Peddiea fischeri” (1983)
In brackets after ≈: the same amount, converted by molar mass. Activity calls are given as the source filed them. The rule behind the calls is not given here.

What was measured:
[1] = tested on: P388; test: Cytotoxicity against mouse P388 cells; assay type: functional; details: read-out: ED50 (the source's name)
[2] = tested on: P388; test: In vivo antitumor activity against mouse P388 cells at 2.2 to 17.5 mg/kg; assay type: functional, organism-based
[3] = tested on: P388; test: In vivo antitumor activity against mouse P388 cells at 1.4 to 11.4 mg/kg; assay type: functional, organism-based

Compound	EC50 [1] [µg/mL]	Activity [2]	Activity [3]
COc1cc2cc(Oc3ccc4ccc(=O)oc4c3)c(=O)oc2cc1O [DAPHNORETIN]	2.2 (≈ 6.24 µM)	inactive	inactive
COC1=CC(=O)C=C(OC)C1=O [2,6-DIMETHOXYQUINONE]	0.0015 (≈ 0.00892 µM)		
O=c1ccc2ccc(O)cc2o1 [UMBELLIFERONE]	0.4 (≈ 2.47 µM)	inactive	inactive
